Test results: ChEMBL document CHEMBL2021902, “Type 1 phototherapeutic agents, part I: preparation and cancer cell viability studies of novel photolabile sulfenamides” (ACS Med Chem Lett, 2011)
The source made the active and inactive calls. No cut-off for these calls is given here.

What was measured:
Format in all cases: functional, cell-based
U-937 = test: Cytotoxicity in UV-irradiated human U937 cells exposed to photosensitizer for 2 hrs before irradiation for 20 mins by WST-1 assay; settings: for IC50: U-937, light or radiation study
HCT-116 = test: Cytotoxicity in UV-irradiated human HCT116 cells exposed to photosensitizer for 2 hrs before irradiation for 20 mins by WST-1 assay
HT-29 = test: Cytotoxicity in UV-irradiated human HT-29 cells exposed to photosensitizer for 2 hrs before irradiation for 20 mins by WST-1 assay
KB = test: Cytotoxicity in UV-irradiated human KB cells exposed to photosensitizer for 2 hrs before irradiation for 20 mins by WST-1 assay

Row | SMILES | Activity (U-937) | IC50 (U-937) [µM] | Activity (HCT-116) | Activity (HT-29) | Activity (KB)
1 | O=[N+]([O-])c1ccc(SN2c3ccccc3Cc3ccccc32)cc1 | Dose-dependent effect | 1.3 | Active | Active | Active
2 | O=[N+]([O-])c1ccc(SN2Cc3ccccc3-c3ccccc32)cc1 | Dose-dependent effect | 7.3 |  |  | 
3 | O=[N+]([O-])c1ccc(SN2c3ccccc3N=Nc3ccccc32)cc1 | Dose-dependent effect | > 20 |  |  | 
4 | CC1=Nc2ccc(Cl)cc2N(Sc2ccc([N+](=O)[O-])cc2)c2ccccc21 | Dose-dependent effect | 2 |  |  | 
5 | O=[N+]([O-])c1ccc(SN2Cc3ccccc3Cc3ccccc32)cc1 | Dose-dependent effect | 5.7 |  |  | 
6 | O=[N+]([O-])c1ccc(SN2c3ccccc3C=Cc3ccccc32)cc1 | Dose-dependent effect | 1.2 | Active | Active | Active
7 | O=[N+]([O-])c1ccc(SN2c3ccccc3Oc3ccccc32)cc1 | Dose-dependent effect | > 20 |  |  | 
8 | O=[N+]([O-])c1ccc(SN(c2ccccc2)c2ccccc2)cc1 | Dose-dependent effect | 6.8 |  |  | 
9 | O=[N+]([O-])c1ccc(SN2CCc3ccccc3-c3ccccc32)cc1 | Dose-dependent effect | 6 |  |  | 
10 | O=[N+]([O-])c1ccc(Sn2c3ccccc3c3ccccc32)cc1 | Dose-dependent effect | > 20 |  |  | 
11 | O=[N+]([O-])c1ccc(SN2c3ccccc3Sc3ccccc32)cc1 | Dose-dependent effect | 12.4 |  |  | 
12 | O=[N+]([O-])c1ccc(SN2Cc3ccccc3Oc3ccccc32)cc1 | Dose-dependent effect | 17.2 |  |  | 
